From patent US20260373136A1, “A NOVEL DOSAGE REGIMEN USING LOW DOSES OF DONEPEZIL OR DERIVATIVE THEREOF FOR PREVENTING OR TREATING A COMPULSIVE DISORDER” (SORBONNE UNIVERSITE, priority 2022, published 2026)
Read-outs that look alike come from different tables or passages of the source.

Assays:
[1] = Patient Health Questionnaire (PHQ-9) before and after treatment; format: in vivo, human; conditions: for depression symptoms: PHQ-9 post vs pre-treatment; for Patient Health Questionnaire (PHQ-9) score, post treatment: 5-9 mild, 10-14 moderate, 15-19 moderately severe, 20-27 severe depression
Procedure: (§1) 6 anorexic patients were treated with donepezil: 5 of them with a daily dose according to the present invention and 1 with a higher dose (comparative).
(§2) The studies were led in hospital. Each case is presented below.
(§3) The treatment started with a daily dose of donepezil of 0.5 mg for 10 days then the daily dose was increased to 1 mg for 7 days then increased to 1.5 mg for 71 days (2 months and 10 days) then increased to 2 mg for 22 days and then increased to 2.5 mg and remains on this dose for 4 months and 18 days.
Patient #2 depression symptoms have also been evaluated with Patient Health Questionnaire (PHQ-9) (available on https://med.stanford.edu/fastlab/research/imapp/msrs/_jcr_content/main/accordion/accor dion_content3/download_256324296/file.res/PHQ9%20id%20date%2008.03.pdf) before and after the treatment. The following scores have been obtained:
The score obtained with questionnaire PHQ-9 is classified as follows: • 5-9: mild depression; 10-14: moderate depression; 15-19: moderately severe depression; • 20-27: severe depression
(§4) The treatment started with a daily dose of donepezil of 0.5 mg for 13 days then the daily dose was increased to 0.75 mg for 9 days then increased to 1 mg for 17 days and then increased to 1.5 mg and remained at this dosage for a month then stopped for two months and then restarted with a daily dose of 1.5 mg that remains within 1 month and then discontinued.
Patient #4 depression symptoms have also been evaluated with questionnaire PHQ-9 before and after the treatment. The following scores have been obtained:
The score obtained with questionnaire PHQ-9 is classified as follows: • 5-9: mild depression; 10-14: moderate depression; 15-19: moderately severe depression; 20-27: severe depression
(§5) The treatment started with a daily dose of donepezil of 0.5 mg for 8 days and then the daily dose was increased to 1 mg for 9 days and then increased to 1.67 mg for 62 days and then increased to 2.5 mg.
Patient #6 depression symptoms have also been evaluated with questionnaire PHQ-9 before and after the treatment.

[2] = Eating Disorder Examination Questionnaire (EDE-q) before and after treatment; format: in vivo, human; parameters: scale not given here; conditions: >=4 clinical range, >2.8 possible clinically significant pathology
Procedure: as §1, §2, §4
The eating disorders of patient #4 before and after treatment have been evaluated with the Eating Disorder Examination Questionnaire (EDE-q) (available on https://www.corc.uk.net/outcome-experience-measures/eating-disorder-examination-questionnaire-ede-q/) which has given the following results:
as §5
The eating disorders of patient #6 before and after treatment have been evaluated with EDE-q questionnaire which has given the following results: […]

[3] = Clinical observation of eating disorder behaviours and cognitions of anorexic patients treated with donepezil; format: in vivo, human
Procedure: as §1, §2
Patient #2 is a person who developed anorexia nervosa restricting type in adolescence. They were very restricted in the types of food they ate and could not eat food that was processed or high in sugar or fats. They exercised 3-4 hours a day. They were unable to reduce their exercising even minimally […] becoming flooded with debilitating anxiety. They were unable to eat enough to maintain a healthy weight. Their BMI was 18.5 kg/m^2 and was medically stable when they started donepezil.
as §3
Patient #3 is a person with a 20-year history of anorexia nervosa binge/purge type who had been in recovery for two years before relapsing following a relationship trauma. They were slowly losing weight and was bingeing and purging multiple times every evening. They also were waking up every morning at 4 am to exercise obsessively for hours. They were spending all their disposable income on binge foods and was slowly draining their savings. At times they were stealing food to binge on.
The treatment started with a daily dose of donepezil of 0.5 mg for 10 days and then the daily dose was increased to 1 mg for 9 days and then increased to 1.5 mg for 17 days and then increased to 2 mg for 7 days and then increased to 2.5 mg for 16 days and then discontinued.
as §4
A patient who has suffered from anorexia nervosa during their second pregnancy. They have been vigilant about their caloric intake and body image since their adolescence. They also suffer from recurrent depression treated with venlafaxine 75 mg per day and a generalized anxiety disorder. Undernutrition worsened markedly, reaching a minimum BMI of 11 kg/m^2. The maximum lifetime BMI excluding pregnancy is 19.8 kg/m^2. The symptomatology is dominated by qualitative and quantitative food restriction and physical hyperactivity. There is a period of several months of hyperphagia and provoked vomiting. Neurocognitive executive functions are preserved, there is a high tolerance of delayed reward measured by Delay Discounting Task.
Donepezil was taken at a rate of 2.5 mg per day for 2 months.
A person with a 20-year history of anorexia nervosa-binge/purge subtype and a comorbid history or obsessive-compulsive disorder. They have been very symptomatic throughout their adolescence and went into a partial remission in early adulthood. Over the next 10 years, their symptoms waxed and waned and they had 2 major relapses that they had slowly recovered from. They were currently weight restored but following some environmental stresses, was starting to relapse. They were struggling with increasing eating disordered ruminations and cognitions, increasing body image distortions and dissatisfaction. They were becoming more rigid and restrictive in their eating. They also saw a rise in their obsessive-compulsive disorder symptoms.
as §5

[4] = Patient #2, daily dose 0.5-2.5 mg
[5] = Patient #6, daily dose 0.5 mg to 2.5 mg, pre-treatment 3.8
[6] = Patient #2, daily dose 0.5-2.5 mg, over the next 5 months
[7] = Patient #3, daily dose 0.5-2.5 mg, within a month of starting
[8] = Patient #6, daily dose 0.5 mg to 2.5 mg, over 3 months
[9] = low dose between 0.5 and 2.5 mg/day, clinical cases overall (conclusion)

COc1cc2c(cc1OC)C(=O)C(CC1CCN(Cc3ccccc3)CC1)C2 (stereo not drawn) [donepezil]
depression symptoms [1, 4]: diminution of their depression symptoms
Patient Health Questionnaire (PHQ-9) score, post treatment ([1]; Patient #2, daily dose 0.5-2.5 mg, pre-treatment score 10): 4
depression symptoms ([1]; Patient #4, daily dose 0.5 to 1.5 mg): diminution of their depression symptoms
Patient Health Questionnaire (PHQ-9) score, post treatment ([1]; Patient #4, daily dose 0.5 to 1.5 mg, pre-treatment score 17): 5
depression symptoms ([1]; Patient #6, daily dose 0.5 mg to 2.5 mg): diminution of their depression symptoms
Patient Health Questionnaire (PHQ-9) score, post treatment ([1]; Patient #6, daily dose 0.5 mg to 2.5 mg, pre-treatment score 6): 2
EDE-q Restraint score, post treatment ([2]; Patient #4, daily dose 0.5 to 1.5 mg, pre-treatment 4): 2
EDE-q Eating concerns score, post treatment ([2]; Patient #4, daily dose 0.5 to 1.5 mg, pre-treatment 4.6): 2.2
EDE-q Global scores, post treatment ([2]; Patient #4, daily dose 0.5 to 1.5 mg, pre-treatment 4.9): 3.0
EDE-q Weight concerns score, post treatment ([2]; Patient #4, daily dose 0.5 to 1.5 mg, pre-treatment 5.4): 3.4
EDE-q Shape concerns score, post treatment ([2]; Patient #4, daily dose 0.5 to 1.5 mg, pre-treatment 5.8): 4.4
EDE-q Eating concerns score, post treatment ([2]; Patient #6, daily dose 0.5 mg to 2.5 mg, pre-treatment 0.6): 0.4
EDE-q Global scores, post treatment ([2]; Patient #6, daily dose 0.5 mg to 2.5 mg, pre-treatment 3.4): 2.6
EDE-q Restraint score, post treatment [2, 5]: 2.8
EDE-q Weight concerns score, post treatment [2, 5]: 3.2
EDE-q Shape concerns score, post treatment ([2]; Patient #6, daily dose 0.5 mg to 2.5 mg, pre-treatment 5.4): 4.1
flexibility with eating [3, 6]: able to be more flexible with their eating and incorporate a wider variety of foods
preoccupation with weight or appearance [3, 6]: much less preoccupied with their weight or appearance
ruminations and compulsions to exercise [3, 6]: decrease in ruminations and compulsions to exercise
exercise per day ([3]; Patient #2, daily dose 0.5-2.5 mg, over the next 5 months, exercised 3-4 hours a day before): 90 minutes a day
bingeing (and consequent purging) [3, 7]: able to reduce their bingeing (and consequent purging) significantly
stealing food [3, 7]: stopped stealing food completely
maximum spending on binge foods ([3]; Patient #3, daily dose 0.5-2.5 mg, within a month of starting, all disposable income before): ≤ 5.00 $
flexibility with eating and eating disordered cognitions ([3]; Patient #4, daily dose 1.5 mg, within a month): more flexible with their eating and less preoccupied with their eating disordered cognitions and urges to restrict and lose weight
flexibility with eating and weight after restart ([3]; Patient #4, donepezil restarted for a month at 1.5 mg daily, improvements continued after discontinuing): more flexible with their eating, and they started to gain weight slowly
eating disordered cognitions after stopping medication ([3]; Patient #4, two months without donepezil after 1st month at 1.5 mg daily): increasing rigidity in their eating disordered cognitions
ease of eating ([3]; Patient #5, 2.5 mg per day for 2 months, end of treatment period): began to eat more easily
eating disordered cognitions and ruminations [3, 8]: significant decrease in their eating disordered cognitions and ruminations
intensity of body image distress [3, 8]: reduction in the intensity of their body image distress
usefulness to treat anorexia and related compulsive behaviors [3, 9]: useful to treat anorexia and related compulsive behaviors
improvement and severe side effects (Other patients (#2-#6), 0.5-2.5 mg PO OD (conclusion)): improved without severe side effects
blood pressure (Patient #1 (comparative), 5 mg daily per os, in local emergency department, previously normal 120/70 mmHg, no other cause found, donepezil discontinued): 183/124
side-effects (Patient #1 (comparative), 5 mg daily per os, within 5 days, responded to over-the-counter pain medications): drowsiness and headaches
blood pressure (Patient #1 (comparative), 5 mg daily per os, within a week, previously normal 120/70 mmHg): 175/120
blood pressure (Patient #1 (comparative), next few weeks after discontinuing donepezil (5 mg daily), previously normal 120/70 mmHg): 140/95
severe side effect (Patient #1, 5 mg PO OD (conclusion)): severe side effect (high blood pressure and severe headache)
blood pressure [4]: remained unaffected
other side-effects [4]: no other side-effects
side effects [9]: without causing any side effects
